Patent US5059589A, “Glaucoma treatment” (Abbott Laboratories, priority 1990, dated 1991)

Tests used:
[1] = system: intraocular pressure in rabbits; assay: Topically administered Compound V alone and in combination with timolol on intraocular pressure of rabbits; assay type: in vivo, rabbit; settings: topical, alone
Protocol: (§1) The antiglaucoma activity of the compounds was tested by measuring the effect on intraocular pressure in rabbits as described by Tinjum, A.M., Acta Ophthalmologica, 50, 677 (1972). Male albino, New Zealand rabbits were placed in restraining devices and the intraocular pressure was measured with an applamatic tonometer. […]

[2] = system: intraocular pressure in rabbits; assay: Dose response study of topically administered Compound V and timolol on intraocular pressure of rabbits; assay type: in vivo, rabbit; settings: topical
Protocol: as §1

[3] = system: intraocular pressure in rabbits; assay: Effects of topically administered renin inhibiting compounds on intraocular pressure of rabbits; assay type: in vivo, Male albino, New Zealand rabbits; settings: topical 0.1 ml, 0.5% active substance
Protocol: The antiglaucoma activity of the compounds was tested by measuring the effect on intraocular pressure in rabbits as described by Tinjum, A.M., Acta Ophthalmologica, 50, 677 (1972). Male albino, New Zealand rabbits were placed in restraining devices and the intraocular pressure was measured with an applamatic tonometer. Exactly 0.1 ml of an isotonic saline solution containing a test compound was instilled into the conjuctival sac and the intraocular pressure was measured at 5, 15, 30, 60, 90, 120 and 180 minutes afterwards.

[4] = 0.03%, 5 minutes after administration
[5] = 0.03%, 15 minutes after administration
[6] = 0.03%, 30 minutes after administration
[7] = 0.03%, 60 minutes after administration
[8] = 0.03%, 90 minutes after administration
[9] = 0.03%, 120 minutes after administration
[10] = 0.03%, 150 minutes after administration
[11] = 0.05%, 15 minutes after administration
[12] = 0.05%, 30 minutes after administration
[13] = 0.05%, 60 minutes after administration

COc1ccc(CC(NC(=O)CC(C)(C)N)C(=O)NC(Cc2cnc[nH]2)C(=O)N[C@@H](CC2CCCCC2)[C@@H](O)[C@@H](O)CC(C)C)cc1 (stereo partly drawn) [Compound V, H-((beta,beta-dimethyl)-beta Ala)-(4-OCH3)Phe-His amide of 2(S)-amino 1-cyclohexyl 3(R),4(S) dihydroxy-6-methylheptane]
Mean Intraocular Pressure in mmHg [1, 4]: 10.4 mmHg
Mean Intraocular Pressure in mmHg [1, 5]: 10.3 mmHg
Mean Intraocular Pressure in mmHg [1, 6]: 10.1 mmHg
Mean Intraocular Pressure in mmHg [1, 7]: 10.2 mmHg
Mean Intraocular Pressure in mmHg [1, 8]: 10.4 mmHg
Mean Intraocular Pressure in mmHg [1, 9]: 14.5 mmHg
Mean Intraocular Pressure in mmHg [1, 10]: 17.0 mmHg
Mean Intraocular Pressure in mmHg ([1]; 0.03%, CONTROL): 17.5 mmHg
Mean Intraocular Pressure in mmHg ([2]; 0.01%, 5 minutes after administration): 17.7 mmHg
Mean Intraocular Pressure in mmHg ([2]; 0.01%, 15 minutes after administration): 16.3 mmHg
Mean Intraocular Pressure in mmHg ([2]; 0.01%, 30 minutes after administration): 13.7 mmHg
Mean Intraocular Pressure in mmHg ([2]; 0.01%, 60 minutes after administration): 16.9 mmHg
Mean Intraocular Pressure in mmHg ([2]; 0.01%, 90 minutes after administration): 15.4 mmHg
Mean Intraocular Pressure in mmHg ([2]; 0.01%, 120 minutes after administration): 18.2 mmHg
Mean Intraocular Pressure in mmHg ([2]; 0.01%, 150 minutes after administration): 20.3 mmHg
Mean Intraocular Pressure in mmHg ([2]; 0.01%, CONTROL): 19.2 mmHg
Mean Intraocular Pressure in mmHg [2, 4]: 13.8 mmHg
Mean Intraocular Pressure in mmHg [2, 5]: 13.3 mmHg
Mean Intraocular Pressure in mmHg [2, 6]: 12.8 mmHg
Mean Intraocular Pressure in mmHg [2, 7]: 13.8 mmHg
Mean Intraocular Pressure in mmHg [2, 8]: 13.8 mmHg
Mean Intraocular Pressure in mmHg [2, 9]: 15.2 mmHg
Mean Intraocular Pressure in mmHg [2, 10]: 16.8 mmHg
Mean Intraocular Pressure in mmHg ([2]; 0.03%, CONTROL): 19.0 mmHg
Mean Intraocular Pressure in mmHg ([2]; 0.1%, 5 minutes after administration): 14.1 mmHg
Mean Intraocular Pressure in mmHg ([2]; 0.1%, 15 minutes after administration): 13.1 mmHg
Mean Intraocular Pressure in mmHg ([2]; 0.1%, 30 minutes after administration): 11.9 mmHg
Mean Intraocular Pressure in mmHg ([2]; 0.1%, 60 minutes after administration): 11.3 mmHg
Mean Intraocular Pressure in mmHg ([2]; 0.1%, 90 minutes after administration): 11.5 mmHg
Mean Intraocular Pressure in mmHg ([2]; 0.1%, 120 minutes after administration): 17.5 mmHg
Mean Intraocular Pressure in mmHg ([2]; 0.1%, 150 minutes after administration): 19.0 mmHg
Mean Intraocular Pressure in mmHg ([2]; 0.1%, CONTROL): 18.7 mmHg
Mean Intraocular Pressure in mmHg ([2]; 0.3%, 5 minutes after administration): 13.3 mmHg
Mean Intraocular Pressure in mmHg ([2]; 0.3%, 15 minutes after administration): 12.0 mmHg
Mean Intraocular Pressure in mmHg ([2]; 0.3%, 30 minutes after administration): 10.9 mmHg
Mean Intraocular Pressure in mmHg ([2]; 0.3%, 60 minutes after administration): 12.2 mmHg
Mean Intraocular Pressure in mmHg ([2]; 0.3%, 90 minutes after administration): 12.4 mmHg
Mean Intraocular Pressure in mmHg ([2]; 0.3%, 120 minutes after administration): 16.0 mmHg
Mean Intraocular Pressure in mmHg ([2]; 0.3%, 150 minutes after administration): 18.8 mmHg
Mean Intraocular Pressure in mmHg ([2]; 0.3%, CONTROL): 21.2 mmHg

CC(C)(C)NC[C@H](O)COc1nsnc1N1CCOCC1 [Timolol, reference compound]
Mean Intraocular Pressure in mmHg ([1]; 0.05%, 5 minutes after administration): 10.2 mmHg
Mean Intraocular Pressure in mmHg [1, 11]: 11.0 mmHg
Mean Intraocular Pressure in mmHg [1, 12]: 10.1 mmHg
Mean Intraocular Pressure in mmHg [1, 13]: 9.9 mmHg
Mean Intraocular Pressure in mmHg ([1]; 0.05%, 90 minutes after administration): 13.9 mmHg
Mean Intraocular Pressure in mmHg ([2]; 0.02%, 30 minutes after administration): 13.9 mmHg
Mean Intraocular Pressure in mmHg ([2]; 0.02%, 120 minutes after administration): 22.4 mmHg
Mean Intraocular Pressure in mmHg ([2]; 0.02%, 150 minutes after administration): 19.9 mmHg
Mean Intraocular Pressure in mmHg [2, 11]: 12.8 mmHg
Mean Intraocular Pressure in mmHg [2, 12]: 12.8 mmHg
Mean Intraocular Pressure in mmHg [2, 13]: 12.3 mmHg
Mean Intraocular Pressure in mmHg ([2]; 0.05%, 150 minutes after administration): 20.3 mmHg
Mean Intraocular Pressure in mmHg ([2]; 0.2%, 5 minutes after administration): 12.1 mmHg
Mean Intraocular Pressure in mmHg ([2]; 0.2%, 15 minutes after administration): 12.5 mmHg
Mean Intraocular Pressure in mmHg ([2]; 0.2%, 60 minutes after administration): 12.8 mmHg
Mean Intraocular Pressure in mmHg ([2]; 0.5%, 5 minutes after administration): 12.8 mmHg
Mean Intraocular Pressure in mmHg ([2]; 0.5%, 15 minutes after administration): 12.8 mmHg
Mean Intraocular Pressure in mmHg ([2]; 0.5%, 30 minutes after administration): 11.0 mmHg
Mean Intraocular Pressure in mmHg ([2]; 0.5%, 60 minutes after administration): 10.9 mmHg
Mean Intraocular Pressure in mmHg ([3]; 5 minutes after administration): 12.1 mmHg
Mean Intraocular Pressure in mmHg ([3]; 15 minutes after administration): 9.9 mmHg
Mean Intraocular Pressure in mmHg ([3]; 30 minutes after administration): 11.9 mmHg
Mean Intraocular Pressure in mmHg ([3]; 60 minutes after administration): 10.6 mmHg
Mean Intraocular Pressure in mmHg ([3]; 90 minutes after administration): 12.4 mmHg
Mean Intraocular Pressure in mmHg ([3]; 120 minutes after administration): 13.3 mmHg
